Assay results as given in patent US20220062296A1, “COMBINATIONS OF GABAA ALPHA 5 AGONISTS AND SV2A INHIBITORS AND METHODS OF USING IN THE TREATMENT OF COGNITIVE IMPAIRMENT” (AGENEBIO, INC., priority 2020, published 2022).

Columns and labels:
[1] = cited from earlier work
aged-impaired (AI) rats = assay: Radial Arm Maze (RAM) task with one-hour delay, levetiracetam; format: in vivo, rat; conditions: for effective in reducing the number of errors in the radial arm maze: levetiracetam on its own
Method: The effects of levetiracetam on the spatial memory retention of aged-impaired (AI) rats were assessed in a Radial Arm Maze (RAM) behavioral task using vehicle control and five different dosage levels of levetiracetam (1.25 mg/kg/day, 2.5 mg/kg/day, 5 mg/kg/day, 10 mg/kg/day and 20 mg/kg/day). RAM behavioral tasks were performed on ten AI rats. All six treatment conditions were tested on all ten rats, as described above for the MWM test. The RAM apparatus used consisted of eight equidistantly spaced arms. An elevated maze arm (7 cm width×75 cm length) projected from each facet of an octagonal center platform (30 cm diameter, 51.5 cm height). […] A food well (4 cm diameter, 2 cm deep) was located at the distal end of each arm. Froot Loops™ (Kellogg Company) were used as rewards. […] Numerous extra maze cues surrounding the apparatus were also provided. The AI rats were initially subjected to a pre-training test (Chappell et al. Neuropharmacology 37: 481-487, 1998). […] In the habituation phase, rats were familiarized to the maze for an 8-minute session on four consecutive days. In each of these sessions food rewards were scattered on the RAM, initially on the center platform and arms and then progressively confined to the arms. After this habituation phase, a standard training protocol was used, in which a food pellet was located at the end of each arm. Rats received one trial each day for 18 days. Each daily trial terminated when all eight food pellets had been obtained or when either 16 choices were made or 15 minutes had elapsed. After completion of this training phase, a second training phase was carried out in which the memory demand was increased by imposing a brief delay during the trial. At the beginning of each trial, three arms of the eight-arm maze were blocked. Rats were allowed to obtain food on the five arms to which access was permitted during this initial ‘information phase’ of the trial. Rats were then removed from the maze for 60 seconds, during which time the barriers on the maze were removed, thus allowing access to all eight arms. Rats were then placed back onto the center platform and allowed to obtain the remaining food rewards during this ‘retention test’ phase of the trial. The identity and configuration of the blocked arms varied across trials. The number of “errors” the AI rats made during the retention test phase was tracked. An error occurred in the trial if the rats entered an arm from which food had already been retrieved in the pre-delay component of the trial, or if it re-visited an arm in the post-delay session that had already been visited. After completion of the pre-training test, rats were subjected to trials with more extended delay intervals, i.e., a one-hour delay, between the information phase (presentation with some blocked arms) and the retention test (presentation of all arms). During the delay interval, rats remained off to the side of the maze in the testing room, on carts in their individual home cages. […] Injections were given every other day with intervening washout days. Each AI rat was treated with all six conditions within 23 days of testing. To counterbalance any potential bias, drug effect was assessed using ascending-descending dose series, i.e., the dose series was given first in an ascending order and then repeated in a descending order. Therefore, each dose had two determinations. Parametric statistics (paired t-tests) was used to compare the retention test performance of the AI rats in the one-hour delay version of the RAM task in the context of different doses of levetiracetam and vehicle control (see FIG. 3).

aMCI subjects = assay: Neuropsychological tests (Buschke Selective Reminding, Benton Visual Retention, Verbal Paired Associates); format: in vivo, human; conditions: levetiracetam 125 mg twice a day for two weeks
From the text: All participants undergo neuropsychological evaluation at the time of assessment for treatment efficacy (Visits 1 and 2), as well as at the Baseline Visit. The evaluation occurs outside of the scanner and includes the Buschke Selective Reminding Test (Buschke and Fuld, 1974) and the Verbal Paired Associates subtest, the Logical Memory subtest, the Visual Reproduction subtest of the Wechsler Memory Scale-Revised (WMS-R) (Wechsler, 1997), and the Benton Visual Retention Test, as these tasks are particularly sensitive to medial temporal lobe function and early memory problems (Marquis et al., 2002 and Masur et al., 1994). Additionally, subjects are asked to complete tests of more general cognitive function such as tests to assess general mental status, executive function, attention and general naming ability. All neuropsychological tests are administered by a trained research assistant during a 60-minute session. As the three neuropsychological assessments in this study occur within a time period of 8 weeks, different versions of the neuropsychological tests are used to minimize test specific practice effects. Breaks are provided to the subject as needed.

[2] = Levetiracetam blood plasma levels in aMCI patients; format: in vivo; conditions: human, oral, based on aMCI patients, read-out: effective plasma level range (preferred range goal)
From the text: Visit 1: At the end of the first drug/placebo period 2 weeks after the Baseline Visit, the medical, neurological and psychiatric evaluations and cognitive testing are repeated. The subject is also clinically evaluated for suicidal ideation. Blood is drawn again to repeat the standard tests and to determine whether there are any changes related to drug treatment; the subject's blood levetiracetam level is also obtained. All medication dispensed at the Baseline Visit (drug or placebo) is collected and subject compliance with the medication regimen is assessed. The first fMRI session (with cognitive tests) is conducted on the same day, either immediately before or immediately after the clinical assessment. Subjects discontinue first period treatment at this visit.
Visit 2: At approximately 2 weeks after the Washout Visit (i.e., 2 weeks after starting the second treatment period), the medical, neurological and psychiatric evaluations and the cognitive testing are repeated. The subject is clinically evaluated for suicidal ideation. […] All medication dispensed at the Washout Visit is collected and subject compliance with the medication regimen is assessed. […]
Human – in the human studies described in Examples 2 and 3, a subject's levetiracetam blood plasma level was assessed at each visit. […]

concentration at 2 weeks [2]: 2900 to 4400 ng/mL
SMILES: CC[C@@H](C(N)=O)N1CCCC1=O [levetiracetam, (2S)-2-(2-oxopyrrolidin-1-yl)butanamide]
plasma half-life in elderly ([1]; expected, due to decreased renal function): 9 to 10 h | time to steady state ([1]; multiple twice-daily dosing): 2 days | plasma half-life ([1]; oral administration): approximately 7±1 hour | absorption after oral administration ([1]; oral): rapidly and almost completely absorbed | effect of food on bioavailability ([1]; oral): not affected by food | time of peak plasma concentrations following oral administration ([1]; oral): about 1 hour | effective doses of levetiracetam in the animal model (aged-impaired (AI) rats; AI rats): 5 to 10 mg/kg | average no. of errors ± standard error of the mean (SEM) (aged-impaired (AI) rats; levetiracetam 5 mg/kg/day i.p., one-hour delay, p=0.057 vs vehicle): 0.75±0.32 | average no. of errors ± SEM (aged-impaired (AI) rats; levetiracetam 10 mg/kg/day i.p., one-hour delay, p=0.042 vs vehicle): 0.80±0.27 | performance of AI rats in the radial maze task (aged-impaired (AI) rats; levetiracetam 20 mg/kg): fails to improve the performance | effective in reducing the number of errors in the radial arm maze (aged-impaired (AI) rats; 1.25 mg/kg): not at 1.25 mg/kg or 2.5 mg/kg | effective in reducing the number of errors in the radial arm maze (aged-impaired (AI) rats; 2.5 mg/kg): not at 1.25 mg/kg or 2.5 mg/kg | Benton Visual Retention Test performance (aMCI subjects): fail to rescue performance | Buschke Selective Reminding Test-Delayed Recall performance (aMCI subjects): fail to rescue performance | Verbal Paired Associates Test-Delayed Recall performance (aMCI subjects): fail to rescue performance | Verbal Paired Associates Test-Recognition performance (aMCI subjects): fail to rescue performance
